Source: patent US9637469B2, “Pyridine derivative” (Teijin Pharma Limited, priority 2012, dated 2017)

What was measured:
[1] = target: T1, human URAT1 (Homo sapiens, UniProt Q96S37); assay: Test for inhibition of uric acid transport using human URAT1-expressing cells;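 note: three stars up to 0.2 µM two stars 0.2-2 µM one star 2-20 µM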; assay type: cell-based; conditions: HEK 293 cells expressing human URAT1; 14C-labeled uric acid 25 μM; uptake 37° C. for 5 min
T1 construct: Full-length cDNA of human URAT1 (hURAT1)
T1 sequence (Q96S37 1-553): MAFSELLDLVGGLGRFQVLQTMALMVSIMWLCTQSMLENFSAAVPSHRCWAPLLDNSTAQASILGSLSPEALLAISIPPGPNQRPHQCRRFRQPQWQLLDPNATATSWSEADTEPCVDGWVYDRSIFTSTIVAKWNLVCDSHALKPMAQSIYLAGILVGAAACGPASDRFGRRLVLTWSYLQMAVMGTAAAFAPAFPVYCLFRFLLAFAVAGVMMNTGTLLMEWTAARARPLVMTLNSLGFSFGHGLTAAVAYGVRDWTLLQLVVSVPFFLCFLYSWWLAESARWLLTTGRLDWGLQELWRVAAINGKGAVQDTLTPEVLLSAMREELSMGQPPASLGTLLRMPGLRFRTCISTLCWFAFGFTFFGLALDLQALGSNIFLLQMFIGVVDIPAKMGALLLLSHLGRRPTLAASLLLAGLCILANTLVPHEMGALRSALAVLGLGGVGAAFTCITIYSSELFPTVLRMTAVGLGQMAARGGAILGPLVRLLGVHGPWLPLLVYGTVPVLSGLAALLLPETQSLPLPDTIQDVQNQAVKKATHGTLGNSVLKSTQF
In short: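 HEK293 cells stably transfected with full-length hURAT1, preincubated 10 min at 37 °C in HBSS with NaCl replaced by Na gluconate. Uptake of 25 μM ¹⁴C-uric acid with compound ran 5 min at 37 °C, then scintillation counting. IC50 derived from % of DMSO-control URAT1-specific uptake.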

[2] = tested on: Cebus apella; assay: Test for drug efficacy in Cebus apella (uric acid excretion rate); assay type: in vivo; conditions: 3 mg/kg to 30 mg/kg in 0.5% methylcellulose into stomach via the nasal cavity, up to 24 hours
Protocol: A test compound (3 mg/kg to 30 mg/kg) prepared by suspending in a 0.5% methylcellulose solution was administered to Cebus apella into stomach via the nasal cavity using a disposable catheter and a syringe barrel. Blood samples were taken before administration and 30 minutes, 1 hour, 2 hours, 4 hours, 8 hours, 12 hours, and 24 hours after administration; and urine samples were collected for the time intervals of immediately to 4 hours after administration, from 4 hours to 8 hours after administration, from 8 hours to 16 hours after administration, and from 16 hours to 24 hours after administration. Concentrations of uric acid and creatinine in the blood and urine samples collected were measured by an automatic analyzer (JEOL Ltd.). Uric acid and creatine were measured using L-type Wako UA.F (Wako Pure Chemicals Industries, Ltd.) and L-type Creatine F (Wako Pure Chemicals Industries, Ltd.) respectively. Uric acid clearance was calculated from the uric acid concentrations in blood and urine and, similarly, creatinine clearance was calculated from the creatinine concentrations.

Inhibitory Activity (IC50 of uric acid transport inhibition) [1] | Structure (SMILES) | uricosuric effect (uric acid excretion rate) [2]
* * * | O=C(O)c1c(C(F)(F)F)nc(-c2cccnc2)n1Cc1cc(Cl)ccc1Cl [Compound A19, 1-(2,5-dichlorobenzyl)-2-(pyridin-3-yl)-4-(trifluoromethyl)-1H-imidazole-5-carboxylic acid] | excellent uricosuric effect was confirmed
* * | Cc1nc(-c2cccnc2)n(Cc2cccc3ccsc23)c1C(=O)O [Compound A81, 1-(benzo[b]thiophen-7-ylmethyl)-4-methyl-2-(pyridin-3-yl)-1H-imidazole-5-carboxylic acid] | excellent uricosuric effect was confirmed
* * | Cc1nc(-c2cncc(F)c2)n(Cc2cccc3ccccc23)c1C(=O)O [Compound A119, 2-(5-fluoropyridin-3-yl)-4-methyl-1-(naphthalen-1-ylmethyl)-1H-imidazole-5-carboxylic acid] | excellent uricosuric effect was confirmed
* * * | Cc1nc(-c2cncc(F)c2)n(Cc2cc(Cl)ccc2Cl)c1C(=O)O [Compound A134, 1-(2,5-dichlorobenzyl)-2-(5-fluoropyridin-3-yl)-4-methyl-1H-imidazole-5-carboxylic acid] | excellent uricosuric effect was confirmed
* * * | O=C(O)c1c(C(F)(F)F)nc(-c2cncc(Cl)c2)n1Cc1cc(Cl)ccc1Cl [Compound A137, 2-(5-chloropyridin-3-yl)-1-(2,5-dichlorobenzyl)-4-(trifluoromethyl)-1H-imidazole-5-carboxylic acid] | excellent uricosuric effect was confirmed
* * * | O=C(O)c1c(C2CC2)nc(-c2cncc(Cl)c2)n1Cc1cc(Cl)ccc1Cl [Compound A147, 2-(5-chloropyridin-3-yl)-4-cyclopropyl-1-(2,5-dichlorobenzyl)-1H-imidazole-5-carboxylic acid] | excellent uricosuric effect was confirmed

Further lines, the molecule ahead of its results:

Structure (SMILES) | Inhibitory Activity (IC50 of uric acid transport inhibition) [1] | uricosuric effect (uric acid excretion rate) [2]
O=C(O)c1c(C2CC2)nc(-c2cccnc2)n1Cc1cc(Cl)ccc1Cl [Compound A15, 4-cyclopropyl-1-(2,5-dichlorobenzyl)-2-(pyridin-3-yl)-1H-imidazole-5-carboxylic acid] | * * * | excellent uricosuric effect was confirmed
CC(C)c1nc(-c2cccnc2)n(Cc2cc(Cl)ccc2Cl)c1C(=O)O [Compound A26, 1-(2,5-dichlorobenzyl)-4-isopropyl-2-(pyridin-3-yl)-1H-imidazole-5-carboxylic acid] | * * * | excellent uricosuric effect was confirmed
Cc1nc(-c2cncc(Cl)c2)n(Cc2cccc3ccccc23)c1C(=O)O [Compound A121, 2-(5-chloropyridin-3-yl)-4-methyl-1-(naphthalen-1-ylmethyl)-1H-imidazole-5-carboxylic acid] | * * | excellent uricosuric effect was confirmed
Cc1nc(-c2cncc(Cl)c2)n(Cc2cc(Cl)ccc2Cl)c1C(=O)O [Compound A135, 2-(5-chloropyridin-3-yl)-1-(2,5-dichlorobenzyl)-4-methyl-1H-imidazole-5-carboxylic acid] | * * * | excellent uricosuric effect was confirmed
Cc1nc(-c2cncc(C(F)(F)F)c2)n(Cc2cc(Cl)ccc2Cl)c1C(=O)O [Compound A139, 1-(2,5-dichlorobenzyl)-4-methyl-2-(5-(trifluoromethyl)pyridin-3-yl)-1H-imidazole-5-carboxylic acid] | * * * | excellent uricosuric effect was confirmed
